The values that follow are results of earlier work, collected in patent publication US20190263765A1, “SYNERGISTIC ANTICOAGULANT COMPOSITION” (priority 2018, published 2019).

For the data set the following is noted: background statement.

As to `CC(=O)CC(c1ccccc1)c1c(O)c2ccccc2oc1=O` (centres unmarked) [warfarin], the “clearance from the body” value was 72 to 96 h. `O=c1oc2ccccc2c(O)c1C1CC(c2ccc(-c3ccc(Br)cc3)cc2)Cc2ccccc21` (centres unmarked) [brodifacoum]: the “clearance from the body (in words)” value is reported as “requires months”.
